{"source": "paper PMC2045673", "about": "“Site-specific acetylation of ISWI by GCN5” (BMC Molecular Biology, 2007)", "test_in_all_cases": "radiometric HAT assay, SDS-PAGE autoradiography", "type_in_all_cases": "biochemical", "key": {"p300 (FLAG-p300)": {"target": "T1, p300 (FLAG-p300) (Homo sapiens, UniProt Q09472)", "T1 construct": "gene EP300; FLAG-tagged recombinant p300", "T1 sequence (Q09472 2-2414)": "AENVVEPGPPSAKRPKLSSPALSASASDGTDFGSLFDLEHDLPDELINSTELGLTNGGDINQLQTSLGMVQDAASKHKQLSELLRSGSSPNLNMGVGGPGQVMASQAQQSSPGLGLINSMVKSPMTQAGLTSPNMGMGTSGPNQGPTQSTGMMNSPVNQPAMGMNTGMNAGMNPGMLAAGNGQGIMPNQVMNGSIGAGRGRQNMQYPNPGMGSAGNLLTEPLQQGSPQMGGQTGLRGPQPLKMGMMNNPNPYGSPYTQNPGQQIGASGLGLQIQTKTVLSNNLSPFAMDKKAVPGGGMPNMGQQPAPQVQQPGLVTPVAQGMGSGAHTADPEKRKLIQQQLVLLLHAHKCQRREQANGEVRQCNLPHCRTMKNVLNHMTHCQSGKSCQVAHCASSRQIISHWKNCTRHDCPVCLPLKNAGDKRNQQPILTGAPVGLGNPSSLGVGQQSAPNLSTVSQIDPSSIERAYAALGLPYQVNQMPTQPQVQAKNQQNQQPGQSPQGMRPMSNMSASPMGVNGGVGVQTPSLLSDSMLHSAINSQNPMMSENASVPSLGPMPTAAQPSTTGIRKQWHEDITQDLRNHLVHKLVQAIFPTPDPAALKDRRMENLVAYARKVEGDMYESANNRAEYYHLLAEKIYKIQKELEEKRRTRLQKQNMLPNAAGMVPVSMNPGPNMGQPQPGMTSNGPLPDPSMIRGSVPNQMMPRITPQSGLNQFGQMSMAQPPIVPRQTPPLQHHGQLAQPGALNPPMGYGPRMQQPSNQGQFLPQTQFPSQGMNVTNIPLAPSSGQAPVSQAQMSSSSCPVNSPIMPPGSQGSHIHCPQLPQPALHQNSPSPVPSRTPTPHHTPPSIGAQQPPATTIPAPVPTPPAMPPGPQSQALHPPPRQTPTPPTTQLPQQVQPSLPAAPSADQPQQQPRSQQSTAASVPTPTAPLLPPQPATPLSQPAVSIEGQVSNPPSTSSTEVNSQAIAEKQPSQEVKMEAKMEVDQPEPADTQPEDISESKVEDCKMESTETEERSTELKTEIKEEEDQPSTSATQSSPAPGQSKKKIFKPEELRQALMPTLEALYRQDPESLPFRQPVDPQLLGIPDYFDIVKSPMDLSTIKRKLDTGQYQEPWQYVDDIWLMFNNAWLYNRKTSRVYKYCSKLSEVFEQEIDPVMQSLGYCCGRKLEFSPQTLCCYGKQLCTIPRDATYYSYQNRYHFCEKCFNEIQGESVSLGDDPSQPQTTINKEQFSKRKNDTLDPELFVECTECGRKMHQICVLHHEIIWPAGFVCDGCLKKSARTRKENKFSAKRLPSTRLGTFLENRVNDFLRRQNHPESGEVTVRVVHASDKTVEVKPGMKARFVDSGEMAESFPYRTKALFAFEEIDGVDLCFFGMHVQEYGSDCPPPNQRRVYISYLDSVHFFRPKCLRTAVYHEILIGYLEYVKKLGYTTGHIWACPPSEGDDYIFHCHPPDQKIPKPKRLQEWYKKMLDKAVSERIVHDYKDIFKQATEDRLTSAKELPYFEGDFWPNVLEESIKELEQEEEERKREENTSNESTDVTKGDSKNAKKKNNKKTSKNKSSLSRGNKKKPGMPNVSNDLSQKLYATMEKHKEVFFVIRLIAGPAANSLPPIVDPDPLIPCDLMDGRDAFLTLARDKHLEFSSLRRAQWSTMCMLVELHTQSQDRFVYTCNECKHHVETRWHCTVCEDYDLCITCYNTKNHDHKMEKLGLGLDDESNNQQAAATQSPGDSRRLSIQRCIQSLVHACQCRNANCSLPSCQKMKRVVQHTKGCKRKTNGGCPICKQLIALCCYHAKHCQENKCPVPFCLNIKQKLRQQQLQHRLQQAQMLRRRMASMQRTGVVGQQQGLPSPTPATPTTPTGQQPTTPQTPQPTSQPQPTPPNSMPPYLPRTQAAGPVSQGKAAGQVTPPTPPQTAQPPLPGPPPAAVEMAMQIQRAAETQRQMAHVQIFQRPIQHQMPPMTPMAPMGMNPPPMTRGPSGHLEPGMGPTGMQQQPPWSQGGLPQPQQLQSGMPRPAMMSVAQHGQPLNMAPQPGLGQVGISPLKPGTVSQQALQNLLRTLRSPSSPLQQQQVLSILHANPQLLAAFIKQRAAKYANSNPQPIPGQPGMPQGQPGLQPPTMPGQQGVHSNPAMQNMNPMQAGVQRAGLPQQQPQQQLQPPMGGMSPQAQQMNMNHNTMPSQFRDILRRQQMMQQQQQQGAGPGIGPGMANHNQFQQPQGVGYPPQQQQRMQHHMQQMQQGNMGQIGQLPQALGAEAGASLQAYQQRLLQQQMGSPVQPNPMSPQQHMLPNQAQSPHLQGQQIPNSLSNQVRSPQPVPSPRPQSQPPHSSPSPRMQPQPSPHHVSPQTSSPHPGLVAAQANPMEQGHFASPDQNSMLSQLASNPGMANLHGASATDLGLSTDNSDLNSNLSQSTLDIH", "details": "labelled compound; co-substrate histones, ISWI or peptide; pH 7.8, 26 °C"}, "GCN5 (GST-hGCN5)": {"target": "T2, GCN5 (GST-hGCN5) (Homo sapiens, UniProt Q92830)", "T2 construct": "gene KAT2A; GST-tagged, recombinant from E. coli", "T2 sequence (Q92830 whole entry)": "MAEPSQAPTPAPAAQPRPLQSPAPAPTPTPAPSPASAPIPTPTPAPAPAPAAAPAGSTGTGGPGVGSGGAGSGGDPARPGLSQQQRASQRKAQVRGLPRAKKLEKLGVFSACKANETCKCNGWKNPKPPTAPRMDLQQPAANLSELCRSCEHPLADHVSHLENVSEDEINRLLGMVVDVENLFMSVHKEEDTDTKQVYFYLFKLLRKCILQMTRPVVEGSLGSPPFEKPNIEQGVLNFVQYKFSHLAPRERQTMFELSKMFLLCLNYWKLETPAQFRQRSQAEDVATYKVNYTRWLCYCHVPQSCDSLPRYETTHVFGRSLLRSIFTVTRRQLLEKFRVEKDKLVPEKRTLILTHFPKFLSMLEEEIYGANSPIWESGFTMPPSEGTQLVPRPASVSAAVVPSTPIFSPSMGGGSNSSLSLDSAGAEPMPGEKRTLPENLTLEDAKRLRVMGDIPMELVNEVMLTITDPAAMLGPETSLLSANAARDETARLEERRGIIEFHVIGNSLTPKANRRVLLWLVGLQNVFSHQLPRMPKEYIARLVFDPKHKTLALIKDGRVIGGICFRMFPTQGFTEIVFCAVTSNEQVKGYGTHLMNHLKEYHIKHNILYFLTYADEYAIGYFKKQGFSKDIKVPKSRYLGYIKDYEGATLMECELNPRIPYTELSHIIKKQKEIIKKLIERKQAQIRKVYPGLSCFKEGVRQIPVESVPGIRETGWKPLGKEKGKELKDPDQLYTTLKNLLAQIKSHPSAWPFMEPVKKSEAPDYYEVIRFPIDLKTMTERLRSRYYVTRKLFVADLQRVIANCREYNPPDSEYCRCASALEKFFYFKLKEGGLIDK", "details": "labelled compound; co-substrate histones, ISWI or peptide; pH 7.8, 26 °C"}, "MOF (HA-MOF)": {"target": "T3, MOF (HA-MOF) (Drosophila melanogaster, UniProt O02193)", "T3 construct": "HA-tagged recombinant MOF", "T3 sequence (O02193 1-827)": "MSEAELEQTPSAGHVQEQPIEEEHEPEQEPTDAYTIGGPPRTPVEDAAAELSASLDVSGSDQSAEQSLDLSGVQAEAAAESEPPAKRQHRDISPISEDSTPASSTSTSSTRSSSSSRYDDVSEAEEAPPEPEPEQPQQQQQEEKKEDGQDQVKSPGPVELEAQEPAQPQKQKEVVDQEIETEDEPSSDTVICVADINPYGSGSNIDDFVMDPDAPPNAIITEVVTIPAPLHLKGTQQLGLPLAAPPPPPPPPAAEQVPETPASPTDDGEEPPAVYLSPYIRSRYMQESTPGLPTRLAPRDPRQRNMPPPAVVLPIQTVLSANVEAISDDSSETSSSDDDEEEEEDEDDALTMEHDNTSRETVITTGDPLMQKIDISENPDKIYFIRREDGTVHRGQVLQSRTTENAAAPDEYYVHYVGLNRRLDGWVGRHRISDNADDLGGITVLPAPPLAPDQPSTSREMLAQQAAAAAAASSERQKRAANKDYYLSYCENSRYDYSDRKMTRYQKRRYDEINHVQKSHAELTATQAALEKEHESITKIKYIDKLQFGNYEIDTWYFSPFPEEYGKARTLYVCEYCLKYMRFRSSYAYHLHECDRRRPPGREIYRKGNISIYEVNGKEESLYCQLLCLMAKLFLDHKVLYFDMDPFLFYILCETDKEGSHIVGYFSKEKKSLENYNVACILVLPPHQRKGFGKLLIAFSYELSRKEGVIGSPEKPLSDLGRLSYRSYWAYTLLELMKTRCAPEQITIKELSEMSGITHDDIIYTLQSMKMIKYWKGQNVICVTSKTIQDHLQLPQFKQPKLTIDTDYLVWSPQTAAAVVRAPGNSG", "details": "labelled compound; co-substrate histones; pH 7.8, 26 °C"}}, "data": [{"compound": "CC(=O)SCCNC(=O)CCNC(=O)[C@H](O)C(C)(C)COP(=O)(O)OP(=O)(O)OC[C@H]1O[C@@H](n2cnc3c(N)ncnc32)[C@H](O)[C@@H]1OP(=O)(O)O", "note": "[acetyl-CoA]", "values": [{"measurement": "radiometric HAT assay, SDS-PAGE autoradiography", "setting": "p300 (FLAG-p300)", "result": "The histone acetyltransferase activities of recombinant GCN5, p300 and MOF were assayed"}, {"measurement": "radiometric HAT assay, SDS-PAGE autoradiography", "setting": "GCN5 (GST-hGCN5)", "result": "The histone acetyltransferase activities of recombinant GCN5, p300 and MOF were assayed"}, {"measurement": "radiometric HAT assay, SDS-PAGE autoradiography", "setting": "MOF (HA-MOF)", "result": "The histone acetyltransferase activities of recombinant GCN5, p300 and MOF were assayed"}]}]}
